The source of these data is patent US5952321A, “Substituted azetidinones as anti-inflammatory and antidegenerative agents” (Merck & Co., Inc., priority 1996, dated 1999).

The first assay deals with T1, Human Polymorphonuclear Leukocyte Elastase (Homo sapiens, UniProt P08246).
T1 sequence (P08246 30-267): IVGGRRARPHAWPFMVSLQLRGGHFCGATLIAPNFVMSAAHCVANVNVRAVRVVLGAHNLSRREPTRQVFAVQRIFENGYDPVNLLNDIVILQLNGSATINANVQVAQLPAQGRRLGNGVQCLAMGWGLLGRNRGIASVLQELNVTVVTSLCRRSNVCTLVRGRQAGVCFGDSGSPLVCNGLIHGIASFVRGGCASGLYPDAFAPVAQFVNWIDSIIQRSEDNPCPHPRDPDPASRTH
In words: Inhibition of human polymorphonuclear leukocyte elastase via hydrolysis of Boc-AAPAN or Boc-AAPVN. Format: biochemical. To be noted: pH 7.5, Table I; second order rate constant for inactivation of the enzyme; read-out: Kobs /[I]. In outline:
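Crude human PMN extract was added to 0.2 mM Boc-AAPAN or Boc-AAPVN substrate solution in 0.05 M TES pH 7.5 containing inhibitor in DMSO; extract volume was adjusted per batch activity. Hydrolysis was followed as ΔOD/min at 410 mμ, after a pre-check for spontaneous hydrolysis. Values are ID50 (μg/ml, 50% inhibition at 2 min), Ki (μM) or kobs/I.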
With `CCC[C@@H](NC(=O)N1C(=O)C(CC)(CC)[C@@H]1Oc1ccc(CN2CCN(C(=O)c3ccccc3)CC2)cc1)c1ccc(C)cc1` [R4+R5=--CH2 CH2 N(Bz)CH2 CH2 --; R6=H], the kinact/KI was 1.7e+06 M⁻¹ s⁻¹.

Consider `CCC[C@@H](NC(=O)N1C(=O)C(CC)(CC)[C@@H]1Oc1ccc(Cn2ccnc2)cc1)c1ccc(C)cc1` [R4+R5=--CHCHNCH--; R6=H], for which the kinact/KI stood at 1.6e+06 M⁻¹ s⁻¹. Same read-out and setting: the value for `CCC[C@@H](NC(=O)N1C(=O)C(CC)(CC)[C@@H]1Oc1ccc(CN(C)CCCOC(=O)N(C)C)cc1)c1ccc(C)cc1` [R4=Me; R5=CH2 CH2 CH2 OCONMe2; R6=H] was 2.1e+06 M⁻¹ s⁻¹.

In the case of `CCC[C@@H](NC(=O)N1C(=O)C(CC)(CC)[C@@H]1Oc1ccc(CN(CC)C(C)COC)cc1)c1ccc(C)cc1` (some centres unmarked) [R4=Et; R5=CH(Me)CH2 OMe; R6=H], the kinact/KI turned out to be 670000 M⁻¹ s⁻¹.

For `CCC[C@@H](NC(=O)N1C(=O)C(CC)(CC)[C@@H]1Oc1ccc(CN(C)CCOC(=O)N(C)C)cc1)c1ccc(C)cc1` [R4=Me; R5=CH2 CH2 OCONMe2; R6=H, (4S)-3,3-Diethyl-1-[(R)-α-n-propyl-(4-methyl)benzylaminocarbonyl]-4-[(4-((2-dimethylaminocarbonyloxy)ethyl)methylaminomethyl)phenoxy]azetidin-2-one], the kinact/KI came to 610000 M⁻¹ s⁻¹. The same measure, in the same setting: the value for `CCC[C@@H](NC(=O)N1C(=O)C(CC)(CC)[C@@H]1Oc1ccc(CN2CCN(C(C)C)CC2)cc1)c1ccc(C)cc1` [R4+R5=--CH2 CH2 N(i-Pr)CH2 CH2 --; R6=H] was 1.2e+06 M⁻¹ s⁻¹; that for `CCC[C@@H](NC(=O)N1C(=O)C(CC)(CC)[C@@H]1Oc1ccc(CN(C)CCOC(=O)NC)cc1)c1ccc(C)cc1` [R4=Me; R5=CH2 CH2 OCONHMe; R6=H] was 700000 M⁻¹ s⁻¹; that for `CCC[C@@H](NC(=O)N1C(=O)C(CC)(CC)[C@@H]1Oc1ccc(CN2CCSC2)cc1)c1ccc(C)cc1` [R4+R5=--CH2 CH2 SCH2 --; R6=H] was 940000 M⁻¹ s⁻¹. On to `CCC[C@@H](NC(=O)N1C(=O)C(CC)(CC)[C@@H]1Oc1ccc(C(COC)N(C)CCC)cc1)c1ccc(C)cc1` (mixture of isomers) [R4=Me; R5=n-Pr; R6=CH2 OMe, 3,3-Diethyl-1-[(R)-α-(n-propyl)-4-(methyl)benzylaminocarbonyl]-4-(S)-[4-{1-(RS)-(N-(n-propyl)-N-(methyl)amino)-2-methoxyethyl}phenoxy]azetidin-2-one], for which the kinact/KI was 1.5e+06 M⁻¹ s⁻¹. Same read-out and setting: the value for `CCC[C@@H](NC(=O)N1C(=O)C(CC)(CC)[C@@H]1Oc1ccc(CN2CCN(c3ncccn3)CC2)cc1)c1ccc(C)cc1` was 715000 M⁻¹ s⁻¹; that for `CCC[C@@H](NC(=O)N1C(=O)C(CC)(CC)[C@@H]1Oc1ccc(CN2CCOCC2)cc1)c1ccc(C)cc1` [R4+R5=--CH2 CH2 OCH2 CH2 --; R6=H] was 820000 M⁻¹ s⁻¹. Still for that read-out and setting: for `CCC[C@@H](NC(=O)N1C(=O)C(CC)(CC)[C@@H]1Oc1ccc(C(C)N(C)CCO)cc1)c1ccc(C)cc1` (some centres unmarked) [R4=Me; R5=CH2 CH2 OH; R6=Me] the value was 770000 M⁻¹ s⁻¹. On the same count and under the same terms, the value for `CCC[C@@H](NC(=O)N1C(=O)C(CC)(CC)[C@@H]1Oc1ccc(CN2CCN(C(=O)N(C)C)CC2)cc1)c1ccc(C)cc1` [(4S)-3,3-Diethyl-1-[(R)-α-n-propyl-(4-methyl)benzylaminocarbonyl]-4-[(4-((4-dimethylaminocarbonyl)piperazin-1-yl)methyl)phenoxy]azetidin-2-one] was 1.55e+06 M⁻¹ s⁻¹.

With `CCC[C@@H](NC(=O)N1C(=O)C(CC)(CC)[C@@H]1Oc1ccc(CN2C(C)CCCC2C)cc1)c1ccc(C)cc1` (some centres unmarked) [R4+R5=--CHMeCH2 CH2 CH2 CHMe--; R6=H], the kinact/KI was found to be 1.15e+06 M⁻¹ s⁻¹. Still for that read-out and setting: the value for `CCC[C@@H](NC(=O)N1C(=O)C(CC)(CC)[C@@H]1Oc1ccc(CN2CCN(C(C)=O)CC2)cc1)c1ccc(C)cc1` [R4+R5=--CH2 CH2 N(Ac)CH2 CH2 --; R6=H] was 950000 M⁻¹ s⁻¹; that for `CCC[C@@H](NC(=O)N1C(=O)C(CC)(CC)[C@@H]1Oc1ccc(CNC(=O)NC)cc1)c1ccc(C)cc1` [R4=H; R5=CONHMe; R6=H, (4S)-3,3-Diethyl-1-[(R)-α-(n-propyl)-4-(methyl)benzylaminocarbonyl]-4-[(4-((N-methyl)aminocarbonyl)aminomethyl)phenoxy]azetidin-2-one] was 1.1e+06 M⁻¹ s⁻¹; that for `CCC[C@@H](NC(=O)N1C(=O)C(CC)(CC)[C@@H]1Oc1ccc(C2CCCN2CCOC)cc1)c1ccc(C)cc1` (mixture of isomers) [R4=CH2 CH2 OMe; R5+R6=--CH2 CH2 CH2 --, 3,3-Diethyl-1-[(R)-α-(n-propyl)-4-(methyl)benzylaminocarbonyl]-4-(S)-[4-{2-(RS)-(N-(2-methoxyethyl)pyrrolidino)}phenoxy]azetidin-2-one] was 940000 M⁻¹ s⁻¹. In the case of `CCC[C@@H](NC(=O)N1C(=O)C(CC)(CC)[C@@H]1Oc1ccc(CN(C)C)cc1)c1ccc(C)cc1` [R4=Me; R5=Me; R6=H], the kinact/KI was 560000 M⁻¹ s⁻¹. Turning to `CCC[C@@H](NC(=O)N1C(=O)C(CC)(CC)[C@@H]1Oc1ccc(CN(C)CCCOC)cc1)c1ccc(C)cc1` [R4=Me; R5=CH2 CH2 CH2 OMe; R6=H], the kinact/KI was determined as 1.5e+06 M⁻¹ s⁻¹. With `CCC[C@@H](NC(=O)N1C(=O)C(CC)(CC)[C@@H]1Oc1ccc(CN(C)CCOC(=O)N2CCOCC2)cc1)c1ccc(C)cc1`, the kinact/KI was 1.4e+06 M⁻¹ s⁻¹.

`CCC[C@@H](NC(=O)N1C(=O)C(CC)(CC)[C@@H]1Oc1ccc(C(COC)N(CC)CC)cc1)c1ccc(C)cc1` (mixture of isomers) [R4=Et; R5=Et; R6=CH2 OMe, 3,3-Diethyl-1-[(R)-α-(n-propyl)-4-(methyl)benzylaminocarbonyl]-4-(S)-[4-{1-(RS)-(N,N-diethylamino)-2-methoxyethyl}phenoxy]azetidin-2-one]: the kinact/KI amounted to 1.1e+06 M⁻¹ s⁻¹. In the case of `CCC[C@@H](NC(=O)N1C(=O)C(CC)(CC)[C@@H]1Oc1ccc(CN(C)CCN(C)Cc2ccccc2)cc1)c1ccc(C)cc1` [R4=Me; R5=CH2 CH2 N(Me)Bn; R6=H], the kinact/KI was 1.25e+06 M⁻¹ s⁻¹. Still for that read-out and setting: the value for `CCC[C@@H](NC(=O)N1C(=O)C(CC)(CC)[C@@H]1Oc1ccc(C(COC)N2CCCC2)cc1)c1ccc(C)cc1` (mixture of isomers) [R4+R5=--CH2 CH2 CH2 CH2 --; R6=CH2 OMe, 3,3-Diethyl-1-[(R)-α-(n-propyl)-4-(methyl)benzylaminocarbonyl]-4-(S)-[4-{1-(RS)-(1-pyrrolidino)-2-methoxyethyl}phenoxy]azetidin-2-one] was 1.7e+06 M⁻¹ s⁻¹. On to `CCC[C@@H](NC(=O)N1C(=O)C(CC)(CC)[C@@H]1Oc1ccc(CN2CCSCC2)cc1)c1ccc(C)cc1` [R4+R5=--CH2 CH2 SCH2 CH2 --; R6=H], for which the kinact/KI was determined as 915000 M⁻¹ s⁻¹.

Consider `CCC[C@@H](NC(=O)N1C(=O)C(CC)(CC)[C@@H]1Oc1ccc(CN(C)CCC(=O)N(C)C)cc1)c1ccc(C)cc1` [R4=Me; R5=CH2 CH2 CONMe2; R6=H], for which the kinact/KI was found to be 870000 M⁻¹ s⁻¹. With `CCC[C@@H](NC(=O)N1C(=O)C(CC)(CC)[C@@H]1Oc1ccc(C(C)N(C)CCOC)cc1)c1ccc(C)cc1` (stereo partly drawn) [R4=Me; R5=CH2 CH2 OMe; R6=Me, (4S)-3,3-Diethyl-1-[(R)-α-n-propyl-(4-methyl)benzylaminocarbonyl]-4-[(R,S)-4-((1-(2-methoxyethyl)methylamino)ethyl)phenoxy]azetidin-2-one], the kinact/KI amounted to 600000 M⁻¹ s⁻¹. Still for that read-out and setting: for `CCC[C@@H](NC(=O)N1C(=O)C(CC)(CC)[C@@H]1Oc1ccc(CN2CCC(OC)C2)cc1)c1ccc(C)cc1` (some centres unmarked) [R4+R5=--CH2 CH2 CH(OMe)CH2 --; R6=H] the value was 765000 M⁻¹ s⁻¹. As to `CCC[C@@H](NC(=O)N1C(=O)C(CC)(CC)[C@@H]1Oc1ccc(C(COC)N(C)C)cc1)c1ccc(C)cc1` (mixture of isomers) [R4=Me; R5=Me; R6=CH2 OMe, 3,3-Diethyl-1-[(R)-α-(n-propyl)-4-(methyl)benzylaminocarbonyl]-4-(S)-[4-{1-(RS)-(N,N-dimethylamino)-2-methoxyethyl}phenoxy]azetidin-2-one], the kinact/KI amounted to 1.28e+06 M⁻¹ s⁻¹. Regarding `CCCNC(=O)NCc1ccc(O[C@@H]2N(C(=O)N[C@H](CCC)c3ccc(C)cc3)C(=O)C2(CC)CC)cc1` [R4=H; R5=CONHnPr; R6=H, (4S)-3,3-Diethyl-1-[(R)-α-(n-propyl)-4-(methyl)benzylaminocarbonyl]-4-[(4-((N-propyl)aminocarbonyl)aminomethyl)phenoxy]azetidin-2-one], the kinact/KI amounted to 1.2e+06 M⁻¹ s⁻¹.

Still in this assay, the particulars now being: pH 7.5, Table II; second order rate constant for inactivation of the enzyme; read-out: Kobs /[I].
On to `CCC[C@@H](NC(=O)N1C(=O)C(CC)(CC)[C@@H]1Oc1ccc(CCCCN(C)C)cc1)c1ccc(C)cc1` [R4=Me; R5=Me; n=4], for which the kinact/KI was 525000 M⁻¹ s⁻¹. Same read-out and setting: for `CCC[C@@H](NC(=O)N1C(=O)C(CC)(CC)[C@@H]1Oc1ccc(CCN(C)CCN(C)C)cc1)c1ccc(C)cc1` [R4=Me; R5=CH2 CH2 NMe2; n=2, (4S)-3,3-Diethyl-1-[(R)-α-n-propyl-(4-methyl)benzylaminocarbonyl]-4-[(4-(2-((2-dimethylamino)ethyl)methylamino)ethyl)phenoxy]azetidin-2-one] the value was 1.2e+06 M⁻¹ s⁻¹; for `CCC[C@@H](NC(=O)N1C(=O)C(CC)(CC)[C@@H]1Oc1ccc(CCN2CCOCC2)cc1)c1ccc(C)cc1` [R4+R5=--CH2 CH2 OCH2 CH2 --; n=2, (4S)-3,3-Diethyl-1-[(R)-α-n-propyl-(4-methyl)benzylaminocarbonyl]-4-[(4-(2-(4-morpholino))ethyl)phenoxy]azetidin-2-one], 600000 M⁻¹ s⁻¹.

The same assay, now with this note: pH 7.5, Table III; second order rate constant for inactivation of the enzyme; read-out: Kobs /[I].
Regarding `CCC[C@@H](NC(=O)N1C(=O)C(CC)(CC)[C@@H]1Oc1ccc(CN(C)CCOC)c(C)c1)c1ccc(C)cc1`, the kinact/KI is 540000 M⁻¹ s⁻¹.

As for `CCC[C@@H](NC(=O)N1C(=O)C(CC)(CC)[C@@H]1Oc1ccc(CN(CC)C(C)COC)cc1)c1ccc2occc2c1` (some centres unmarked), the kinact/KI amounted to 1.05e+06 M⁻¹ s⁻¹. On the same count and under the same terms, for `CCC[C@@H](NC(=O)N1C(=O)C(CC)(CC)[C@@H]1Oc1ccc(CN(CC)CCOC)cc1)c1ccc2c(c1)OCO2` the value was 1.9e+06 M⁻¹ s⁻¹.
